Assay results: ChEMBL document CHEMBL1201862, “PubChem BioAssay data set” (2004)
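48-hour exposure; five concentrations; linearly interpolated endpoints. The concentration for 50% growth inhibition is given as GI50.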 Activity calls are given as the source filed them. Cut-off read from the data, not from the text of the source: active = GI50 up to about 1.1 µM and inactive = higher.

What was measured:
Assay in all cases: growth of human tumour cells (NCI), 48 h
[1] = test system: SF-539
[2] = test system: 786-0
[3] = test system: NCI-H226
[4] = test system: NCI-H23
[5] = test system: DMS-114
[6] = test system: RXF 393
[7] = test system: CAKI-1
[8] = test system: KM12
[9] = test system: SNB-19
[10] = test system: HOP-92
[11] = test system: U-251
[12] = test system: UO-31
[13] = test system: NCI/ADR-RES
[14] = test system: RPMI-8226
[15] = test system: OVCAR-3
[16] = test system: SK-MEL-28
[17] = test system: HL-60
[18] = test system: HCT-116
[19] = test system: T47D
[20] = test system: Hs-578T

Row | Structure (SMILES) | GI50 [1] | GI50 [2] | GI50 [3] | GI50 [4] | GI50 [5] | GI50 [6] | GI50 [7] | GI50 [8] | GI50 [9] | GI50 [10] | GI50 [11] | GI50 [12] | GI50 [13] | GI50 [14] | GI50 [15] | GI50 [16] | GI50 [17] | GI50 [18] | GI50 [19] | GI50 [20]
1 | O=NN(CCCl)C(=O)NC1CCC(CC2CCC(NC(=O)N(CCCl)N=O)CC2)CC1 (centres undefined) | 0.817 µM (active) | 13.2 µM (inactive) | 79.3 µM (inactive) | 34.1 µM (inactive) | 24.4 µM (inactive) | 1.66 µM (inactive) | 31.3 µM (inactive) | > 73.3 µM (inactive) | 12.2 µM (inactive) | 26.2 µM (inactive) | 1.24 µM (inactive) | 46.1 µM (inactive) | 24.3 µM (inactive) | 1.96 µM (inactive) | 27.8 µM (inactive) | > 65.8 µM (inactive) | 16.4 µM (inactive) | 30.1 µM (inactive) |  | 
2 | O=C1CCCn2c3ccccc3c3ccnc1c32 | 30.8 µM (inactive) |  | 19.4 µM (inactive) | 50 µM (inactive) | 35 µM (inactive) | 24.8 µM (inactive) | 17.3 µM (inactive) | 62.1 µM (inactive) | 47.3 µM (inactive) | > 62.8 µM (inactive) | 40.8 µM (inactive) | 35 µM (inactive) | 36.6 µM (inactive) | 23.6 µM (inactive) | 37.7 µM (inactive) | 51.6 µM (inactive) | 6.89 µM (inactive) | 30.1 µM (inactive) |  | 
3 | Nc1cc2c(cc1[N+](=O)[O-])[nH]c1c(-c3ccccc3)nccc12 | 24.4 µM (inactive) |  | 17 µM (inactive) | 18.7 µM (inactive) | 12.7 µM (inactive) | 19.9 µM (inactive) |  | 15.8 µM (inactive) | 23.8 µM (inactive) | 12 µM (inactive) | 18.8 µM (inactive) | 5.77 µM (inactive) | 14.1 µM (inactive) | 8.24 µM (inactive) | 19.1 µM (inactive) | 27.1 µM (inactive) | 11.8 µM (inactive) | 15.3 µM (inactive) |  | 
4 | Cc1cc(O)nc(NN2C(Cl)C(=O)C2c2cccc(O)c2)n1 (centres undefined) | 2.74 µM (inactive) |  |  | 5.73 µM (inactive) | 5.11 µM (inactive) | 3.48 µM (inactive) |  | 7.1 µM (inactive) | 3.48 µM (inactive) | 4.67 µM (inactive) | 3.05 µM (inactive) | 3.83 µM (inactive) |  | 9.59 µM (inactive) | 3.14 µM (inactive) | 26.5 µM (inactive) | 4.26 µM (inactive) | 2.87 µM (inactive) |  | 
5 | Cc1cc(NC(=O)C(=O)Cc2nc3ccccc3s2)ccc1Cl | > 100 µM (inactive) | > 100 µM (inactive) | > 100 µM (inactive) | > 100 µM (inactive) | > 100 µM (inactive) | > 100 µM (inactive) | > 100 µM (inactive) | > 100 µM (inactive) | > 100 µM (inactive) | > 100 µM (inactive) | > 100 µM (inactive) | > 100 µM (inactive) | > 100 µM (inactive) | > 100 µM (inactive) | > 100 µM (inactive) | > 100 µM (inactive) |  | > 100 µM (inactive) | > 100 µM (inactive) | > 100 µM (inactive)
6 | CC(=O)NC1COC(COC(=O)CCCCCCCCCCNC(=O)c2ccc([N+](=O)[O-])c3c(=O)c4ccccc4[nH]c23)C(O)C1OC(C)C(=O)NC(C(=O)NC(CCC(N)=O)C(=O)OCc1ccccc1)C(C)C (centres undefined) | 20.8 µM (inactive) | 15 µM (inactive) | 44.9 µM (inactive) | 11.4 µM (inactive) | 15.4 µM (inactive) | 4.02 µM (inactive) | 15.2 µM (inactive) | 4.85 µM (inactive) | 6.03 µM (inactive) | 8.05 µM (inactive) | 11.5 µM (inactive) | 8.41 µM (inactive) | 32.9 µM (inactive) | 4.97 µM (inactive) | 3.57 µM (inactive) | 11.9 µM (inactive) | 0.445 µM (active) | 12.2 µM (inactive) | 2.25 µM (inactive) | 6.35 µM (inactive)
7 | Cc1c2ccc3ccccc3c2c[n+]2ccccc12 | 8.41 µM (inactive) | 2.37 µM (inactive) | 4.67 µM (inactive) | 4.91 µM (inactive) | 4.35 µM (inactive) | 22.3 µM (inactive) | 53.6 µM (inactive) | 1.13 µM (inactive) | 2.64 µM (inactive) | 13.5 µM (inactive) | 1.66 µM (inactive) | 17.5 µM (inactive) | 55.2 µM (inactive) | 19.5 µM (inactive) | 5.85 µM (inactive) | 9.55 µM (inactive) | 33.4 µM (inactive) | 17.1 µM (inactive) | 1.36 µM (inactive) | 2.26 µM (inactive)
8 | O=[N+]([O-])c1cccc(C2=NOC3CCCC23)c1 (centres undefined) | > 100 µM (inactive) | > 100 µM (inactive) | > 100 µM (inactive) | > 100 µM (inactive) | > 100 µM (inactive) |  | < 0.01 µM (active) | > 100 µM (inactive) | 25.2 µM (inactive) | > 100 µM (inactive) | > 100 µM (inactive) | > 100 µM (inactive) |  | > 100 µM (inactive) | > 100 µM (inactive) | > 100 µM (inactive) | > 100 µM (inactive) | > 100 µM (inactive) |  | 
9 | C/C=C/CP(=O)(c1ccccc1)c1ccccc1 | > 100 µM (inactive) | > 100 µM (inactive) | > 100 µM (inactive) | > 100 µM (inactive) | > 100 µM (inactive) | > 100 µM (inactive) |  | > 100 µM (inactive) | > 100 µM (inactive) |  | > 100 µM (inactive) | > 100 µM (inactive) |  | > 100 µM (inactive) | > 100 µM (inactive) | > 100 µM (inactive) | > 100 µM (inactive) | > 100 µM (inactive) |  | 
10 | CCOC(OCC)(OCC)C(Br)CC (centres undefined) | > 100 µM (inactive) | 16.4 µM (inactive) | > 100 µM (inactive) | > 100 µM (inactive) | 12.5 µM (inactive) | > 100 µM (inactive) | > 100 µM (inactive) | > 100 µM (inactive) | > 100 µM (inactive) | > 100 µM (inactive) | > 100 µM (inactive) | > 100 µM (inactive) |  | 18.8 µM (inactive) | > 100 µM (inactive) | > 100 µM (inactive) | > 100 µM (inactive) | 0.0281 µM (active) |  | 
11 | CC(=O)OCC1OC(Nc2nc(O)n(C)c(=O)c2-c2csc(N)n2)C(OC(C)=O)C(OC(C)=O)C1OC(C)=O (centres undefined) | > 100 µM (inactive) | > 100 µM (inactive) | > 100 µM (inactive) | > 100 µM (inactive) | > 100 µM (inactive) |  | > 100 µM (inactive) | > 100 µM (inactive) | > 100 µM (inactive) | > 100 µM (inactive) | > 100 µM (inactive) | > 100 µM (inactive) |  | > 100 µM (inactive) | > 100 µM (inactive) | > 100 µM (inactive) | 70 µM (inactive) | > 100 µM (inactive) |  | 
12 | COc1cccc2c1C(=O)c1c(O)c3c(c(O)c1C2=O)C[C@@](O)(C(=O)CO)CC3OC1CC(NCCCCC(OC(C)=O)OC(C)=O)C(O)C(C)O1 (some centres undefined) | 0.00212 µM (active) | 0.00298 µM (active) | 0.00227 µM (active) |  | 0.00402 µM (active) | 0.00193 µM (active) | 0.00251 µM (active) | 0.0024 µM (active) | 0.00329 µM (active) | 0.0032 µM (active) | 0.00173 µM (active) | 0.00192 µM (active) |  | 0.00261 µM (active) | 0.00349 µM (active) | 0.00335 µM (active) | 0.00202 µM (active) |  |  | 
13 | COc1ccc2[nH]c3c(C)c4cc[n+](C)cc4c(C)c3c2c1 | 0.345 µM (active) |  | 0.301 µM (active) | 0.649 µM (active) | 0.412 µM (active) | 1.32 µM (inactive) |  | 1.62 µM (inactive) | 0.273 µM (active) | 3.21 µM (inactive) | 0.191 µM (active) | 21.7 µM (inactive) | 22 µM (inactive) |  | 3.09 µM (inactive) | 2.18 µM (inactive) | 22 µM (inactive) | 2 µM (inactive) |  | 0.199 µM (active)
